# Assay results taken from patent publication US20120029187A1, “HALOALKYLSULFONANILIDE DERIVATIVE” (Nissan Chemical Industries, Ltd., priority 2009, published 2012).
# Assays:
# Format in all cases: in vivo
# barnyardgrass [1] = assay: Test Example 1: herbicidal effects in preemergence treatment under submerged conditions; conditions: dose 2.52 g/a
# Method in brief: (§1)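 Score 0–5 by mortality (5: ≥90%; 0: <5%), read 3 weeks post-application. Paddy-type cups: alluvial soil under 4 cm water, weeds seeded plus transplanted 2.5-leaf rice; diluted EC dosed onto water surface same day as sowing, g/a basis; greenhouse 25 to 30° C.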
# bulrush [2] = assay: as above; conditions: dose 2.52 g/a
# Method in brief: as §1
# ducksalad [3] = assay: as above; conditions: dose 2.52 g/a
# Method in brief: as §1
# transplanted rice = assay: Test Example 1: preemergence treatment under submerged conditions, effect on crop; conditions: dose 2.52 g/a
# Method in brief: as §1
# barnyardgrass [4] = assay: Test Example 2: herbicidal effects during the vegetation period under submerged conditions; conditions: treatment during the vegetation period under submerged conditions; dose 2.52 g/a
# Method in brief: (§2)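 Barnyardgrass, bulrush and ducksalad were co-sown in alluvial soil flooded to 4 cm and grown in a greenhouse at 25 to 30° C. At the 1- or 2-leaf stage, water-diluted emulsifiable concentrates went onto the water surface at set doses (g/a). Herbicidal effect was scored three weeks later on a graded scale.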
# bulrush [5] = assay: as above; conditions: treatment during the vegetation period under submerged conditions; dose 2.52 g/a
# Method in brief: as §2
# ducksalad [6] = assay: as above; conditions: treatment during the vegetation period under submerged conditions; dose 2.52 g/a
# Method in brief: as §2
# Italian ryegrass [7] = assay: Test Example 3: herbicidal effects in soil treatment
# Method in brief: (§3)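 Seeds were sown in sterilized diluvial soil and covered with about 1.5 cm of soil. Compounds, formulated as emulsifiable concentrates and diluted with water, were sprayed evenly over the soil surface at set doses in g/a. Herbicidal effect was scored on a rating scale three weeks later.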
# barnyardgrass [8] = assay: as above
# Method in brief: as §3
# common chickweed [9] = assay: as above
# Method in brief: as §3
# common lambsquater [10] = assay: as above
# Method in brief: as §3
# common ragweed [11] = assay: as above
# Method in brief: as §3
# giant foxtail [12] = assay: as above
# Method in brief: as §3
# large crabgrass [13] = assay: as above
# Method in brief: as §3
# posumbu knotweed [14] = assay: as above
# Method in brief: as §3
# redroot pigweed [15] = assay: as above
# Method in brief: as §3
# velvetleaf [16] = assay: as above
# Method in brief: as §3
# water foxtail [17] = assay: as above
# Method in brief: as §3
# wild oat [18] = assay: as above
# Method in brief: as §3
# Italian ryegrass [19] = assay: Test Example 4: herbicidal effect in foliage treatment; conditions: three weeks after application
# Method in brief: (§4)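 Foliar spray, post-emergence: 14-day-old greenhouse plants (25–30° C, diluvial soil) treated with water-diluted EC at set g/a doses; visual herbicidal score at 3 wk post-application.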
# barnyardgrass [20] = assay: as above; conditions: three weeks after application
# Method in brief: as §4
# beadstraw = assay: as above; conditions: three weeks after application
# Method in brief: as §4
# common chickweed [21] = assay: as above; conditions: three weeks after application
# Method in brief: as §4
# common lambsquater [22] = assay: as above; conditions: three weeks after application
# Method in brief: as §4
# common ragweed [23] = assay: as above; conditions: three weeks after application
# Method in brief: as §4
# giant foxtail [24] = assay: as above; conditions: three weeks after application
# Method in brief: as §4
# large crabgrass [25] = assay: as above; conditions: three weeks after application
# Method in brief: as §4
# posumbu knotweed [26] = assay: as above; conditions: three weeks after application
# Method in brief: as §4
# redroot pigweed [27] = assay: as above; conditions: three weeks after application
# Method in brief: as §4
# velvetleaf [28] = assay: as above; conditions: three weeks after application
# Method in brief: as §4
# water foxtail [29] = assay: as above; conditions: three weeks after application
# Method in brief: as §4
# wild oat [30] = assay: as above; conditions: three weeks after application
# Method in brief: as §4
compound,measurement,setting,value
CCOC(=O)N(c1ccccc1CN1COCCC1=O)S(=O)(=O)C(F)(F)F [II-2],"A: barnyardgrass, herbicidal effect (evaluation scale 0-5)",barnyardgrass [1],5 (mortality of 90% or above (nearly complete death))
same,"B: bulrush, herbicidal effect (evaluation scale 0-5)",bulrush [2],5 (mortality of 90% or above (nearly complete death))
same,"C: ducksalad, herbicidal effect (evaluation scale 0-5)",ducksalad [3],5 (mortality of 90% or above (nearly complete death))
same,"a: transplanted rice, effect on crop (evaluation scale 0-5)",transplanted rice,1 (mortality of at least 5% and less than 20%)
same,"A: barnyardgrass, herbicidal effect (evaluation scale 0-5)",barnyardgrass [4],5 (mortality of 90% or above (nearly complete death))
same,"B: bulrush, herbicidal effect (evaluation scale 0-5)",bulrush [5],5 (mortality of 90% or above (nearly complete death))
same,"C: ducksalad, herbicidal effect (evaluation scale 0-5)",ducksalad [6],4 (mortality of at least 70% and less than 90%)
same,"H: Italian ryegrass, herbicidal effect (evaluation scale 0-5)",Italian ryegrass [7]; dose 6.3 g/a,4 (mortality of at least 70% and less than 90%)
same,"A: barnyardgrass, herbicidal effect (evaluation scale 0-5)",barnyardgrass [8]; dose 6.3 g/a,5 (mortality of 90% or above (nearly complete death))
same,"N: common chickweed, herbicidal effect (evaluation scale 0-5)",common chickweed [9]; dose 6.3 g/a,5 (mortality of 90% or above (nearly complete death))
same,"L: common lambsquater, herbicidal effect (evaluation scale 0-5)",common lambsquater [10]; dose 6.3 g/a,5 (mortality of 90% or above (nearly complete death))
same,"J: common ragweed, herbicidal effect (evaluation scale 0-5)",common ragweed [11]; dose 6.3 g/a,5 (mortality of 90% or above (nearly complete death))
same,"E: giant foxtail, herbicidal effect (evaluation scale 0-5)",giant foxtail [12]; dose 6.3 g/a,5 (mortality of 90% or above (nearly complete death))
same,"D: large crabgrass, herbicidal effect (evaluation scale 0-5)",large crabgrass [13]; dose 6.3 g/a,5 (mortality of 90% or above (nearly complete death))
same,"M: posumbu knotweed, herbicidal effect (evaluation scale 0-5)",posumbu knotweed [14]; dose 6.3 g/a,1 (mortality of at least 5% and less than 20%)
same,"K: redroot pigweed, herbicidal effect (evaluation scale 0-5)",redroot pigweed [15]; dose 6.3 g/a,0 (mortality of less than 5% (almost ineffective))
same,"I: velvetleaf, herbicidal effect (evaluation scale 0-5)",velvetleaf [16]; dose 6.3 g/a,5 (mortality of 90% or above (nearly complete death))
same,"G: water foxtail, herbicidal effect (evaluation scale 0-5)",water foxtail [17]; dose 6.3 g/a,5 (mortality of 90% or above (nearly complete death))
same,"F: wild oat, herbicidal effect (evaluation scale 0-5)",wild oat [18]; dose 6.3 g/a,0 (mortality of less than 5% (almost ineffective))
same,"H: Italian ryegrass, herbicidal effect",Italian ryegrass [19]; dose 6.3 g/a,4 (mortality of at least 70% and less than 90%)
same,"A: barnyardgrass, herbicidal effect",barnyardgrass [20]; dose 6.3 g/a,5 (mortality of 90% or above (nearly complete death))
same,"O: beadstraw, herbicidal effect",beadstraw; dose 6.3 g/a,4 (mortality of at least 70% and less than 90%)
same,"N: common chickweed, herbicidal effect",common chickweed [21]; dose 6.3 g/a,3 (mortality of at least 40% and less than 70%)
same,"L: common lambsquater, herbicidal effect",common lambsquater [22]; dose 6.3 g/a,4 (mortality of at least 70% and less than 90%)
same,"J: common ragweed, herbicidal effect",common ragweed [23]; dose 6.3 g/a,4 (mortality of at least 70% and less than 90%)
same,"E: giant foxtail, herbicidal effect",giant foxtail [24]; dose 6.3 g/a,5 (mortality of 90% or above (nearly complete death))
same,"D: large crabgrass, herbicidal effect",large crabgrass [25]; dose 6.3 g/a,5 (mortality of 90% or above (nearly complete death))
same,"M: posumbu knotweed, herbicidal effect",posumbu knotweed [26]; dose 6.3 g/a,3 (mortality of at least 40% and less than 70%)
same,"K: redroot pigweed, herbicidal effect",redroot pigweed [27]; dose 6.3 g/a,0 (mortality of less than 5% (almost ineffective))
same,"I: velvetleaf, herbicidal effect",velvetleaf [28]; dose 6.3 g/a,5 (mortality of 90% or above (nearly complete death))
same,"G: water foxtail, herbicidal effect",water foxtail [29]; dose 6.3 g/a,5 (mortality of 90% or above (nearly complete death))
same,"F: wild oat, herbicidal effect",wild oat [30]; dose 6.3 g/a,0 (mortality of less than 5% (almost ineffective))
O=C1CC(c2ccccc2)OCN1Cc1ccccc1NS(=O)(=O)C(F)(F)F (stereo not shown) [II-9],"A: barnyardgrass, herbicidal effect (evaluation scale 0-5)",barnyardgrass [1],5 (mortality of 90% or above (nearly complete death))
same,"B: bulrush, herbicidal effect (evaluation scale 0-5)",bulrush [2],5 (mortality of 90% or above (nearly complete death))
same,"C: ducksalad, herbicidal effect (evaluation scale 0-5)",ducksalad [3],5 (mortality of 90% or above (nearly complete death))
same,"a: transplanted rice, effect on crop (evaluation scale 0-5)",transplanted rice,0 (mortality of less than 5% (almost ineffective))
same,"A: barnyardgrass, herbicidal effect (evaluation scale 0-5)",barnyardgrass [4],5 (mortality of 90% or above (nearly complete death))
same,"B: bulrush, herbicidal effect (evaluation scale 0-5)",bulrush [5],5 (mortality of 90% or above (nearly complete death))
same,"C: ducksalad, herbicidal effect (evaluation scale 0-5)",ducksalad [6],5 (mortality of 90% or above (nearly complete death))
same,"H: Italian ryegrass, herbicidal effect (evaluation scale 0-5)",Italian ryegrass [7]; dose 3.2 g/a,4 (mortality of at least 70% and less than 90%)
same,"A: barnyardgrass, herbicidal effect (evaluation scale 0-5)",barnyardgrass [8]; dose 3.2 g/a,5 (mortality of 90% or above (nearly complete death))
same,"N: common chickweed, herbicidal effect (evaluation scale 0-5)",common chickweed [9]; dose 3.2 g/a,3 (mortality of at least 40% and less than 70%)
same,"L: common lambsquater, herbicidal effect (evaluation scale 0-5)",common lambsquater [10]; dose 3.2 g/a,0 (mortality of less than 5% (almost ineffective))
same,"J: common ragweed, herbicidal effect (evaluation scale 0-5)",common ragweed [11]; dose 3.2 g/a,0 (mortality of less than 5% (almost ineffective))
same,"E: giant foxtail, herbicidal effect (evaluation scale 0-5)",giant foxtail [12]; dose 3.2 g/a,4 (mortality of at least 70% and less than 90%)
same,"D: large crabgrass, herbicidal effect (evaluation scale 0-5)",large crabgrass [13]; dose 3.2 g/a,5 (mortality of 90% or above (nearly complete death))
same,"M: posumbu knotweed, herbicidal effect (evaluation scale 0-5)",posumbu knotweed [14]; dose 3.2 g/a,5 (mortality of 90% or above (nearly complete death))
same,"K: redroot pigweed, herbicidal effect (evaluation scale 0-5)",redroot pigweed [15]; dose 3.2 g/a,0 (mortality of less than 5% (almost ineffective))
same,"I: velvetleaf, herbicidal effect (evaluation scale 0-5)",velvetleaf [16]; dose 3.2 g/a,5 (mortality of 90% or above (nearly complete death))
same,"G: water foxtail, herbicidal effect (evaluation scale 0-5)",water foxtail [17]; dose 3.2 g/a,5 (mortality of 90% or above (nearly complete death))
same,"F: wild oat, herbicidal effect (evaluation scale 0-5)",wild oat [18]; dose 3.2 g/a,3 (mortality of at least 40% and less than 70%)
same,"H: Italian ryegrass, herbicidal effect",Italian ryegrass [19]; dose 3.2 g/a,1 (mortality of at least 5% and less than 20%)
same,"A: barnyardgrass, herbicidal effect",barnyardgrass [20]; dose 3.2 g/a,5 (mortality of 90% or above (nearly complete death))
same,"O: beadstraw, herbicidal effect",beadstraw; dose 3.2 g/a,4 (mortality of at least 70% and less than 90%)
same,"N: common chickweed, herbicidal effect",common chickweed [21]; dose 3.2 g/a,3 (mortality of at least 40% and less than 70%)
same,"L: common lambsquater, herbicidal effect",common lambsquater [22]; dose 3.2 g/a,0 (mortality of less than 5% (almost ineffective))
same,"J: common ragweed, herbicidal effect",common ragweed [23]; dose 3.2 g/a,3 (mortality of at least 40% and less than 70%)
same,"E: giant foxtail, herbicidal effect",giant foxtail [24]; dose 3.2 g/a,4 (mortality of at least 70% and less than 90%)
same,"D: large crabgrass, herbicidal effect",large crabgrass [25]; dose 3.2 g/a,0 (mortality of less than 5% (almost ineffective))
same,"M: posumbu knotweed, herbicidal effect",posumbu knotweed [26]; dose 3.2 g/a,5 (mortality of 90% or above (nearly complete death))
same,"K: redroot pigweed, herbicidal effect",redroot pigweed [27]; dose 3.2 g/a,0 (mortality of less than 5% (almost ineffective))
same,"I: velvetleaf, herbicidal effect",velvetleaf [28]; dose 3.2 g/a,1 (mortality of at least 5% and less than 20%)
same,"G: water foxtail, herbicidal effect",water foxtail [29]; dose 3.2 g/a,4 (mortality of at least 70% and less than 90%)
same,"F: wild oat, herbicidal effect",wild oat [30]; dose 3.2 g/a,0 (mortality of less than 5% (almost ineffective))
